Source: PubChem BioAssay AID342 (DTP/NCI, 2004)

System: Swiss mice, Sarcoma 180 sc, mean tumor weight T/C
Test: NCI In Vivo Anticancer Drug Screen. Data for tumor model Sarcoma 180 (subcutaneous) in Swiss mice
Conditions: endpoint: mean tumor weight, higher = larger tumour
Summary of the method: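 Readout is the ratio of treated-group measurement to vehicle-control measurement (T/C), based on survival or tumor size in mice carrying transplanted tumors.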

SMILES: O=C1CN(/N=C\c2ccc([N+](=O)[O-])o2)C(=O)N1
- T/C (dose: 6.25 mg/kg/injection, schedule: Q#A X014 (ip), vehicle: carboxymethylcellulose (CMC)): 91 % of control
- T/C (dose: 12.5 mg/kg/injection, schedule: Q#A X014 (ip), vehicle: carboxymethylcellulose (CMC)): 94 % of control
- T/C (dose: 15.5 mg/kg/injection, schedule: Q01DX007 (ip), vehicle: carboxymethylcellulose (CMC)): 106 % of control
- T/C (dose: 21.0 mg/kg/injection, schedule: Q01DX007 (ip), vehicle: carboxymethylcellulose (CMC)): 92 % of control
- T/C (dose: 25.0 mg/kg/injection, schedule: Q#A X014 (ip), vehicle: carboxymethylcellulose (CMC)): 97 % of control
- T/C (dose: 42.0 mg/kg/injection, schedule: Q01DX007 (ip), vehicle: carboxymethylcellulose (CMC)): 88 % of control
- T/C (dose: 50.0 mg/kg/injection, schedule: Q#A X014 (ip), vehicle: carboxymethylcellulose (CMC)): 27 % of control
- T/C (dose: 84.0 mg/kg/injection, schedule: Q01DX007 (ip), vehicle: carboxymethylcellulose (CMC)): 103 % of control

SMILES: CC(C)(S)C(N)C(=O)O (stereo not drawn)
- T/C (dose: 500.0 mg/kg/injection, schedule: Q01DX007 (oral), vehicle: saline): 122 % of control
- T/C (dose: 1000.0 mg/kg/injection, schedule: Q01DX007 (oral), vehicle: saline): 118 % of control

SMILES: CCCCn1cnc2c(Sc3c([N+](=O)[O-])ncn3C)nc(N)nc21
- T/C (dose: 2.75 mg/kg/injection, schedule: Q#A X014 (ip), vehicle: methylcellulose (MC)): 95 % of control
- T/C (dose: 4.15 mg/kg/injection, schedule: Q#A X014 (ip), vehicle: methylcellulose (MC)): 53 % of control
- T/C (dose: 6.25 mg/kg/injection, schedule: Q#A X014 (ip), vehicle: methylcellulose (MC)): 66 % of control
- T/C (dose: 9.37 mg/kg/injection, schedule: Q#A X014 (ip), vehicle: methylcellulose (MC)): 51 % of control

SMILES: O=P(N1CCCCCC1)(N1CC1)N1CC1
- T/C (dose: 1.0 mg/kg/injection, schedule: Q#A X014 (ip), vehicle: methylcellulose (MC)): 91 % of control
- T/C (dose: 1.0 mg/kg/injection, schedule: Q#A X014 (ip), vehicle: saline): 120 % of control
- T/C (dose: 1.5 mg/kg/injection, schedule: Q#A X014 (ip), vehicle: methylcellulose (MC)): 86 % of control
- T/C (dose: 1.5 mg/kg/injection, schedule: Q#A X014 (ip), vehicle: saline): 103 % of control
- T/C (dose: 2.0 mg/kg/injection, schedule: Q#A X014 (ip), vehicle: methylcellulose (MC)): 65 % of control
- T/C (dose: 2.0 mg/kg/injection, schedule: Q#A X014 (ip), vehicle: saline): 88 % of control
- T/C (dose: 3.0 mg/kg/injection, schedule: Q#A X014 (ip), vehicle: methylcellulose (MC)): 61 % of control
- T/C (dose: 3.0 mg/kg/injection, schedule: Q#A X014 (ip), vehicle: saline): 70 % of control

SMILES: CC1CN1C(=O)Nc1cccc2c(NC(=O)N3CC3C)cccc12 (stereo not drawn)
- T/C (dose: 9.5 mg/kg/injection, schedule: Q#A X014 (ip), vehicle: methylcellulose (MC)): 66 % of control
- T/C (dose: 14.0 mg/kg/injection, schedule: Q#A X014 (ip), vehicle: methylcellulose (MC)): 62 % of control
- T/C (dose: 20.5 mg/kg/injection, schedule: Q#A X014 (ip), vehicle: methylcellulose (MC)): 31 % of control
- T/C (dose: 21.0 mg/kg/injection, schedule: Q#A X014 (ip), vehicle: methylcellulose (MC)): 35 % of control
- T/C (dose: 31.5 mg/kg/injection, schedule: Q#A X014 (ip), vehicle: methylcellulose (MC)): 23 % of control
- T/C (dose: 35.0 mg/kg/injection, schedule: Q01DX007 (ip), vehicle: carboxymethylcellulose (CMC)): 50 % of control
- T/C (dose: 35.0 mg/kg/injection, schedule: Q01DX007 (ip), vehicle: saline): 53 % of control
- T/C (dose: 47.0 mg/kg/injection, schedule: Q#A X014 (ip), vehicle: methylcellulose (MC)): 7 % of control
- T/C (dose: 53.0 mg/kg/injection, schedule: Q01DX007 (ip), vehicle: saline): 46 % of control
- T/C (dose: 80.0 mg/kg/injection, schedule: Q01DX007 (ip), vehicle: saline): 35 % of control

SMILES: CCCn1cnc2c(=S)nc[nH]c21
- T/C (dose: 43.0 mg/kg/injection, schedule: Q01DX007 (ip), vehicle: carboxymethylcellulose (CMC)): 75 % of control
- T/C (dose: 61.0 mg/kg/injection, schedule: Q01DX007 (ip), vehicle: carboxymethylcellulose (CMC)): 44 % of control
- T/C (dose: 93.0 mg/kg/injection, schedule: Q01DX007 (ip), vehicle: carboxymethylcellulose (CMC)): 35 % of control
- T/C (dose: 140.0 mg/kg/injection, schedule: Q01DX007 (ip), vehicle: carboxymethylcellulose (CMC)): 28 % of control

SMILES: COc1ccc2c(c1O)-c1c(OC)c(OC)cc3c1[C@H](C2)[N+](C)(C)CC3
- T/C (dose: 2.5 mg/kg/injection, schedule: Q01DX007 (ip), vehicle: saline): 108 % of control
- T/C (dose: 5.0 mg/kg/injection, schedule: Q01DX007 (ip), vehicle: saline): 100 % of control

SMILES: CC1CN(C(=O)CCl)c2ccccc2N1C(=O)CCl (stereo not drawn)
- T/C (dose: 2.0 mg/kg/injection, schedule: Q01DX007 (ip), vehicle: carboxymethylcellulose (CMC)): 121 % of control
- T/C (dose: 4.0 mg/kg/injection, schedule: Q01DX007 (ip), vehicle: carboxymethylcellulose (CMC)): 114 % of control

SMILES: NC(=O)Oc1ccccc1
- T/C (dose: 220.0 mg/kg/injection, schedule: Q01DX007 (ip), vehicle: other): 69 % of control
- T/C (dose: 330.0 mg/kg/injection, schedule: Q01DX007 (ip), vehicle: other): 84 % of control
- T/C (dose: 492.0 mg/kg/injection, schedule: Q01DX007 (ip), vehicle: other): 65 % of control

SMILES: S=P(N1CCCCC1)(N1CC1)N1CC1
- T/C (dose: 55.0 mg/kg/injection, schedule: Q01DX007 (ip), vehicle: saline): 26 % of control
- T/C (dose: 84.0 mg/kg/injection, schedule: Q01DX007 (ip), vehicle: saline): 26 % of control
- T/C (dose: 125.0 mg/kg/injection, schedule: Q01DX007 (ip), vehicle: saline): 14 % of control
- T/C (dose: 188.0 mg/kg/injection, schedule: Q01DX007 (ip), vehicle: saline): 8 % of control

SMILES: CCOC(=O)C(Cc1ccccc1)c1ccc(Cl)cc1 (stereo not drawn)
- T/C (dose: 62.5 mg/kg/injection, schedule: Q01DX007 (ip), vehicle: methylcellulose (MC)): 67 % of control
- T/C (dose: 125.0 mg/kg/injection, schedule: Q01DX007 (ip), vehicle: methylcellulose (MC)): 75 % of control
- T/C (dose: 250.0 mg/kg/injection, schedule: Q01DX007 (ip), vehicle: methylcellulose (MC)): 118 % of control

SMILES: CCOC(=O)NP(=O)(N1CC1)N1CC1
- T/C (dose: 937.0 micrograms/kg/injection, schedule: Q01DX007 (ip), vehicle: carboxymethylcellulose (CMC)): 113 % of control
- T/C (dose: 1875.0 micrograms/kg/injection, schedule: Q01DX007 (ip), vehicle: carboxymethylcellulose (CMC)): 100 % of control
- T/C (dose: 7500.0 micrograms/kg/injection, schedule: Q01DX007 (ip), vehicle: carboxymethylcellulose (CMC)): 74 % of control

SMILES: COc1ccc(C(=O)/C(Br)=C/C(=O)O)cc1
- T/C (dose: 6.25 mg/kg/injection, schedule: Q01DX007 (ip), vehicle: water): 99 % of control
- T/C (dose: 12.5 mg/kg/injection, schedule: Q01DX007 (ip), vehicle: water): 82 % of control
- T/C (dose: 25.0 mg/kg/injection, schedule: Q01DX007 (ip), vehicle: water): 108 % of control

SMILES: CC(=O)OCC(=O)[C@@]1(O)CC[C@H]2[C@@H]3C[C@H](F)C4=CC(=O)CC[C@]4(C)[C@H]3C(=O)C[C@@]21C
- T/C (dose: 2.5 mg/kg/injection, schedule: Q01DX007 (sc), vehicle: steriod suspending solution): 60 % of control
- T/C (dose: 5.0 mg/kg/injection, schedule: Q01DX007 (sc), vehicle: steriod suspending solution): 49 % of control
- T/C (dose: 10.0 mg/kg/injection, schedule: Q01DX007 (sc), vehicle: steriod suspending solution): 51 % of control
- T/C (dose: 19.0 mg/kg/injection, schedule: Q01DX007 (sc), vehicle: steriod suspending solution): 41 % of control
- T/C (dose: 29.0 mg/kg/injection, schedule: Q01DX007 (sc), vehicle: steriod suspending solution): 31 % of control

SMILES: Cc1cc2nc3c(=O)[nH]c(=O)nc-3n(CCO)c2cc1C
- T/C (dose: 60.0 mg/kg/injection, schedule: Q#A X014 (ip), vehicle: carboxymethylcellulose (CMC)): 78 % of control
- T/C (dose: 120.0 mg/kg/injection, schedule: Q#A X014 (ip), vehicle: carboxymethylcellulose (CMC)): 77 % of control
- T/C (dose: 240.0 mg/kg/injection, schedule: Q#A X014 (ip), vehicle: carboxymethylcellulose (CMC)): 76 % of control
- T/C (dose: 384.0 mg/kg/injection, schedule: Q01DX007 (ip), vehicle: carboxymethylcellulose (CMC)): 61 % of control
- T/C (dose: 480.0 mg/kg/injection, schedule: Q01DX007 (ip), vehicle: carboxymethylcellulose (CMC)): 62 % of control
- T/C (dose: 480.0 mg/kg/injection, schedule: Q#A X014 (ip), vehicle: carboxymethylcellulose (CMC)): 40 % of control
- T/C (dose: 640.0 mg/kg/injection, schedule: Q01DX007 (ip), vehicle: carboxymethylcellulose (CMC)): 82 % of control
- T/C (dose: 960.0 mg/kg/injection, schedule: Q01DX007 (ip), vehicle: carboxymethylcellulose (CMC)): 66 % of control

SMILES: CC1(C)CCC2(C(=O)O)CCC3=C(C(CCl)CC4C3(C)CCC3C4(C)CC(O)C(O)C3(C)C(=O)O)C2C1 (stereo not drawn)
- T/C (dose: 25.0 mg/kg/injection, schedule: Q01DX007 (ip), vehicle: carboxymethylcellulose (CMC)): 108 % of control
- T/C (dose: 50.0 mg/kg/injection, schedule: Q01DX007 (ip), vehicle: carboxymethylcellulose (CMC)): 80 % of control
- T/C (dose: 75.0 mg/kg/injection, schedule: Q01DX007 (ip), vehicle: carboxymethylcellulose (CMC)): 157 % of control
- T/C (dose: 125.0 mg/kg/injection, schedule: Q01DX007 (ip), vehicle: carboxymethylcellulose (CMC)): 70 % of control
